Laboratory results from US20250195530A1, “POLQ INHIBITORS” (ASTRAZENECA AB, priority 2022, published 2025).
Where two headings read alike, the source gives them in different places.

System: DLD-1 BRCA2−/− cells
Assay: Homologous recombination synthetic lethal inhibition of proliferation, DLD-1 BRCA2-/- (Cell Titre Glo 3D)
Type: cell-based
Conditions: Homo sapiens
Outline: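 Read-out: CellTiter-Glo 3D luminescence, day 7 for wt DLD-1, day 12 for BRCA2−/−, about 8-9 population doublings each. Seeding 1,500 or 3,000 cells/mL respectively. Dose range 10 μM–0.51 nM, 3-fold, 10 points, with re-dosing on day 6. IC50 from curve fit.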

[1] = DLD-1, DLD-1 BRCA2 −/− cells, mean, read-out: POLQ PD Prolif Lumin BRCA2 −/− mean pIC50 (converted)
[2] = DLD-1, first proliferation column (c5), taken as DLD-1 BRCA2-/-, read-out: POLQ PD Prolif Lumin (converted)
[3] = DLD-1, first proliferation column (c5), DLD-1 BRCA2-/-, read-out: POLQ PD Prolif Lumin (converted)
[4] = DLD-1, DLD-1 BRCA2 −/−, mean, read-out: POLQ PD Prolif Lumin BRCA2 −/− mean pIC50 (converted)

## CC1(Oc2ncnc3c2nc(-c2ccc(CC(N)=O)cc2Cl)n3CCc2cccc(Br)n2)CC1 [Example T46, 2-(4-(9-(2-(6-bromopyridin-2-yl)ethyl)-6-(1-methylcyclopropoxy)-9H-purin-8-yl)-3-chlorophenyl)acetamide]
[1]
  IC50: > 10000 nM

## CC1(Oc2ncnc3c2nc(-c2ccc(OCCN4CCNCC4)cc2Cl)n3Cc2ncccc2F)CC1 [Example T351, 8-(2-chloro-4-(2-(piperazin-1-yl)ethoxy)phenyl)-9-((3-fluoropyridin-2-yl)methyl)-6-(1-methylcyclopropoxy)-9H-purine]
[2]
  IC50: 3160 nM

## Cc1ccc(C)c(Cn2c(-c3ccc(OCCC(C)C(=O)O)cc3Cl)nc3c(OC4(C)CC4)ncnc32)c1 (single isomer, unassigned) [Example T572, 4-(3-chloro-4-(9-(2,5-dimethylbenzyl)-6-(1-methylcyclopropoxy)-9H-purin-8-yl)phenoxy)-2-methylbutanoic acid]
[3]
  IC50: 631 nM

## CCNC(=O)c1ccc(-c2nc3c(OC4(C)CC4)ncnc3n2Cc2cc(C)ccn2)c(Cl)c1 [Example T114, 3-chloro-N-ethyl-4-(6-(1-methylcyclopropoxy)-9-((4-methylpyridin-2-yl)methyl)-9H-purin-8-yl)benzamide]
[3]
  IC50: 316 nM

## CC1(Oc2ncnc3c2nc(-c2ccc(CCCCC(=O)O)cc2Cl)n3Cc2ccccc2C#N)CC1 [Example U20, 5-(3-chloro-4-(9-(2-cyanobenzyl)-6-(1-methylcyclopropoxy)-9H-purin-8-yl)phenyl)pentanoic acid]
[4]
  IC50: 251 nM

## COc1ccc(Cn2c(-c3ccc(CC(N)=O)cc3Cl)nc3c(OC4(C)CC4)ncnc32)cc1 [Example T106, 2-(3-chloro-4-(9-(4-methoxybenzyl)-6-(1-methylcyclopropoxy)-9H-purin-8-yl)phenyl)acetamide]
[3]
  IC50: 631 nM

## Cc1ccnc(Cn2c(-c3ccc(C4CCC(=O)N4)cc3Cl)nc3c(OC4(C)CC4)ncnc32)c1 (single isomer, unassigned) [Example T172, 5-(3-chloro-4-(6-(1-methylcyclopropoxy)-9-((4-methylpyridin-2-yl)methyl)-9H-purin-8-yl)phenyl)pyrrolidin-2-one]
[3]
  IC50: 398 nM

## CC1(Oc2ncnc3c2nc(-c2ccc(CC(N)=O)cc2Cl)n3Cc2cc(C(F)(F)F)ccn2)CC1 [Example T36, 2-(3-chloro-4-(6-(1-methylcyclopropoxy)-9-((4-(trifluoromethyl)pyridin-2-yl)methyl)-9H-purin-8-yl)phenyl)acetamide]
[1]
  IC50: 501 nM

## Cc1ccnc(Cn2c(-c3ccc(C(=O)N(C)C4COC4)cc3Cl)nc3c(OC4(C)CC4)ncnc32)c1 [Example T320, 3-chloro-N-methyl-4-(6-(1-methylcyclopropoxy)-9-((4-methylpyridin-2-yl)methyl)-9H-purin-8-yl)-N-(oxetan-3-yl)benzamide]
[2]
  IC50: 3160 nM

## CC1(Oc2ncnc3c2nc(-c2ccc(CC(N)=O)cc2Cl)n3Cc2cccc(Cl)c2)CC1 [Example T45, 2-(3-chloro-4-(9-(3-chlorobenzyl)-6-(1-methylcyclopropoxy)-9H-purin-8-yl)phenyl)acetamide]
[1]
  IC50: 50.1 nM

## CC1(Oc2ncnc3c2nc(-c2ccc(OCCCc4nnn[nH]4)cc2Cl)n3Cc2cccc(Cl)c2)CC1 [Example T164, 8-(4-(3-(1H-tetrazol-5-yl)propoxy)-2-chlorophenyl)-9-(3-chlorobenzyl)-6-(1-methylcyclopropoxy)-9H-purine]
[3]
  IC50: 794 nM

## CC1(Oc2ncnc3c2nc(-c2ccc(OCC[C@@](C)(O)C(=O)O)cc2Cl)n3Cc2cccc(Cl)c2)CC1 [Example T301, (R)-4-(3-chloro-4-(9-(3-chlorobenzyl)-6-(1-methylcyclopropoxy)-9H-purin-8-yl)phenoxy)-2-hydroxy-2-methylbutanoic acid]
[2]
  IC50: 2510 nM

## CC(COc1cccc(-c2nc3c(OC4(C)CC4)ncnc3n2Cc2cc(Cl)ccc2F)c1Cl)CC(=O)O (single isomer, unassigned) [Example U33, 4-(2-chloro-3-(9-(5-chloro-2-fluorobenzyl)-6-(1-methylcyclopropoxy)-9H-purin-8-yl)phenoxy)-3-methylbutanoic acid]
[4]
  IC50: 15.8 nM
